In one assay the test system is THP-1 macrophages. The experiment in a line: Cholesterol efflux from differentiated THP-1 macrophages. The assay is classed as cell-based. The settings on record: ApoA1, 10 uM, 24 h. As to the method: Methods: Cultures of the monocyte-macrophage cell line and the hepatocytes HepG2 are obtained from the American Type tissue Culture Collection, Rockville, Md. and were grown in RPMI 1640 medium supplemented with 10% fetal bovine serum, 10 mM HEPES, 2 mM pyruvate, 50 uM (3-Mercaptoethanol (THP-1) and Minimum essential medium (Eagle) with 2 mM L-glutamine and Earle's BSS supplemented with 10% fetal bovine serum, 2 mM glutamin, 0.1 mM non-essential amino acids, 1 mM sodium pyruvate (HepG2), respectively, at 37° C. in 5% CO2. THP-1 cells are differentiated into macrophages by addition of 100 nM Phorbol 12-Myristate 13-Acetate (PMA; Sigma P8139) and PMA included in the medium of all subsequent experiments to maintain differentiation. For cholesterol efflux measurements and triglyceride analysis cells are seeded in 6 well plates at 1.8×10^6 cells (THP-1) and 1×10^6 cells (HepG2) per well, respectively. CHOLESTEROL EFFLUX THP-1 cells are seeded in 6 well plates at 1×10^6 cells per well in RPMI 1640 medium containing 10% FCS and 100 nM TPA for 72 h. After washing with PBS cells are incubated 24 h with fresh in RPMI 1640 medium containing 10% FCS and 100 nM TPA. […] Medium is collected, centrifuged to remove cell debris and assayed for cholesterol using a commercial fluorometric kit (Molecular Probes A-12216). The remaining cellular proteins are lysed with 0.3 NNaOH and protein content measured with the Biorad Bradford reagent. THP-1 (1×10^6 cells per dish) cells were seeded in 6 well dishes in 3 ml modified RPMI 1640 medium (ATTC, Cat. […] After incubation for 24 hours, total cholesterol was determined from cell supernatant in each of the wells using an enzymatic assay with fluorescence read-out for the determination of cholesterol (Amplex Red Cholesterol Assay Kit (A-12213). The fluorescence readout per mg of total protein content as determined from cells that were present in the respective well are shown in FIGS. 9 or 11 as an example.

Another assay deals with HepG2 liver cells. The experiment in a line: Triglyceride assay in HepG2 cells. The assay is classed as cell-based. Particulars: 24 h, 25 pM. On the procedure: Methods: Cultures of the monocyte-macrophage cell line and the hepatocytes HepG2 are obtained from the American Type tissue Culture Collection, Rockville, Md. and were grown in RPMI 1640 medium supplemented with 10% fetal bovine serum, 10 mM HEPES, 2 mM pyruvate, 50 uM (3-Mercaptoethanol (THP-1) and Minimum essential medium (Eagle) with 2 mM L-glutamine and Earle's BSS supplemented with 10% fetal bovine serum, 2 mM glutamin, 0.1 mM non-essential amino acids, 1 mM sodium pyruvate (HepG2), respectively, at 37° C. in 5% CO2.
For cholesterol efflux measurements and triglyceride analysis cells are seeded in 6 well plates at 1.8×10^6 cells (THP-1) and 1×10^6 cells (HepG2) per well, respectively.
TRIGLYCERIDE ASSAY HepG2 cells are seeded in poly-L-Lysine coated 6 well plates at 1×10^6 cells per well in EMEM medium containing 10% FCS until they were appr. 60% confluent. Before treatment with LXR compounds growth medium is changed to medium containing 10% charcoal/dextran-stripped FCS for 12 h. Treatment is done for 24 h in medium containing 10% charcoal/dextran-stripped FCS. Cells are washed twice with ice-cold PBS/0.2% BSA and twice with cold PBS and all liquid carefully removed. Triglyceride are extracted with 1.5 ml hexane/isopropanol=3: 2 per well with gentle shaking for 2-3 h at RT according to Pan et al. (2002) JBC277, 4413-4421 and Goti et al. (1998) Biochem J, 332, 57-65. The extraction solution is collected, dried under vacuum and redissolved in isopropanol/1.5% triton. The remaining cellular proteins are lysed with 0.3 N NaOH and protein content measured with the Biorad Bradford reagent.
Triglyceride levels are measured as esterified glycerol using a commercial enzymatic colorimetric kit (Sigma 343-25P). In a preliminary assay it is checked by omitting the lipase enzyme that contribution of free glycerol is negligible.

For another assay, the target named is T1, Gal4DBD-LXRa (Homo sapiens, UniProt Q13133).
T1 construct: expressed in transfected cells; host or cells: CHO
T1 sequence (Q13133 209-447 limits assumed): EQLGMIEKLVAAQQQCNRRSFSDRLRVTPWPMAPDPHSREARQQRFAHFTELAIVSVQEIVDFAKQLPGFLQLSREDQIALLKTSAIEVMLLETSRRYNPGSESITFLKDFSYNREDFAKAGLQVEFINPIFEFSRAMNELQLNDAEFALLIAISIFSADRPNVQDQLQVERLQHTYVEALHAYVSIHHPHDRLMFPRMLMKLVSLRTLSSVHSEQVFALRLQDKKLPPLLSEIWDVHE
The experiment in a line: pFR-luc reporter transactivation in CHO cells, Gal4DBD-LXRa. The assay is classed as cell-based. Particulars: 16 h, 0.032 to 50 uM. As to the method:
(§1) CHO cells (1×10^5 cells 96 well plate) were co-transfected (Lipofectamine 2000 GIBCO) with pFR-luc (Stratagene) as a reporter gene construct and pCMV-AD derivatives containing the LXRa or LXRb ligand binding domains, which were cloned via the gateway system (GIBCO) described in Example 1, in order to express Gal4DBD-LXRa or Gal4DBD-LXRb fusion proteins.
(§2) Cells were grown in DMEM containing 10% FCS at 37° C. in 5% humidified CO2 for 16 h in presence of 0.05% DMSO vehicle or 0.032 to 50 uM LN0000006500 in vehicle (as indicated in FIG. 9). Luciferase activity was determined from aliquots of extracts prepared from cells following standard luciferase assay kits and protocols from Promega.

Another assay addresses T2, Gal4DBD-LXRb (Homo sapiens, UniProt P55055).
T2 construct: expressed in transfected cells; host or cells: CHO
T2 sequence (P55055 222-460 limits assumed): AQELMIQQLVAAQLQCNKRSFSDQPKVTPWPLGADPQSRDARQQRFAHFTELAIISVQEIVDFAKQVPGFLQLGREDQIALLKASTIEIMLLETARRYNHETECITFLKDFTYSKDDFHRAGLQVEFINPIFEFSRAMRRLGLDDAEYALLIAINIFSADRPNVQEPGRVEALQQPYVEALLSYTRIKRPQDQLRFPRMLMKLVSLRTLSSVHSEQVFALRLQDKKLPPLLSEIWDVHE
Briefly: pFR-luc reporter transactivation in CHO cells, Gal4DBD-LXRb. The assay is classed as cell-based. Particulars: 16 h, 0.032 to 50 uM. As to the method: as §1, §2

The next assay has as its target T3, human LXRalpha LBD (Homo sapiens, UniProt Q13133, A196R).
T3 construct: from amino acids 155 of hLXRalpha to 447; made in house; host or cells: SF9 insect cells (baculovirus) for LXRalpha LBD; E. coli BL21 for Tif2 fragment
T3 sequence (Q13133 155-447 A196R): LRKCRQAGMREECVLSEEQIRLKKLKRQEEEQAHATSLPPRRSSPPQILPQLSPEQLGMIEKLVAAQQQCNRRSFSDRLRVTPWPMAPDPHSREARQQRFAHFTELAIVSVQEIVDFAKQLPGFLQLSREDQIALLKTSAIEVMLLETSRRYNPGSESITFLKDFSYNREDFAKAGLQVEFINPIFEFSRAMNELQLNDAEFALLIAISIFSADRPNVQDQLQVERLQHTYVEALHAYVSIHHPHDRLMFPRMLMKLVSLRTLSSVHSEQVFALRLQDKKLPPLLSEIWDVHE
T3 sequence (Q15596 548-878 partner limits assumed): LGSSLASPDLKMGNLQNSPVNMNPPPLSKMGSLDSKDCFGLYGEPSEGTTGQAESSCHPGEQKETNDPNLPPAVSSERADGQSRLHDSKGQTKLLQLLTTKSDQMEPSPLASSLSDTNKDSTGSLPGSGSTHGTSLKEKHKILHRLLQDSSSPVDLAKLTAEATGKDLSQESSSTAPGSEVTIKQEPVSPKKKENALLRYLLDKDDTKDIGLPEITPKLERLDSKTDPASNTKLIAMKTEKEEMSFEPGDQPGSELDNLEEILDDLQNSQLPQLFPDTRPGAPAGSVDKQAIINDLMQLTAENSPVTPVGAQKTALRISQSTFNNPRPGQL
The experiment in a line: In vitro screening for LXR binding to coactivator Tif2 (LANCE TR-FRET). It is filed as biochemical. The source says: For screening purposes a GST and 6× His fusion of the LBD (from amino acids 155 of hLXRalpha to 447) of human LXRalpha was constructed by first cloning a Gateway cassette (Invitrogen) in frame into the Sma I site of the pAGGHLT Polylinker (Pharmingen). Then a PCR fragment specifically amplified from human liver cDNA was cloned into the resulting pACGHLT-GW following the manufacturers instructions for Gateway cloning (Invitrogen) to yield pACGHLT-GW-hLXRalphaLBD.
100% sequence integrity of all recombinant products was verified by sequencing. Recombinant Baculovirus was constructed from pACGHLT-GW-hLXRalphaLBD using the Pharmingen Baculovirus Expression vector system according to instructions of the manufacturer. Monolayer cultures of SF9 cells were infected by the virus as recommended by Pharmingen or 200 ml cultures of 1×10^6 cells/ml grown in 2 liter Erlenmeyer flasks on an orbital shaker at 30 rpm were infected by 10 ml of same virus stock. In both cases cells were harvested 3 days after infection. All cell growth was performed in Gibco SF900 II with Glutamine (Invitrogen) medium without serum supplementation at 28° C. Since SF9 cells contain significant amounts of endogenous 30 GST, purification was performed via His and not via GST affinity chromatography.
To this end instructions of Pharmingen for purification of recombinant His tagged proteins from SF9 cells were followed with the following modifications: All detergents were omitted from the buffers and cells were lysed on ice by 5 subsequent sonication pulses using a sonicator needle at maximum power.
All eluates were dialyzed against 20 mM Tris/HCl pH 6.8, 300 mM KCl; 5 mM MgCl2;1 mM DTT; 0.2 mM PMSF; 10% Glycerol. A typical dialyzed eluate fraction contained the fusion protein at a purity of more than 80%. Total protein concentration was 0.1-0.3 mg/ml.
For E. coli expression of a NR coactivator, pDest17-hTif2BD expressing an NR interaction domain from amino acids 548-878 of human Tif2 (Acc. No: XM011633 Ref Seq) tagged by 6 N-terminal His residues was constructed. Therefore, a PCR fragment specifically amplified from human liver cDNA was subcloned into pDest 17 (Invitrogen) following the manufacturers instructions for Gateway cloning (Invitrogen). Primers used for Amplification were: […]
For E. coli expression plasmid DNA was transformed into chemically competent E. coli BL21 (Invitrogen, USA) and cells were grown to an OD600 of 0.4-0.7 before expression was induced by addition of 0.5 mM IPTG according instructions of the manufacturer (Invitrogen). After induction for 8 hours at 30° C. cells were harvested by centrifugation for 10 minutes at 5000×g. Fusion proteins were affinity purified using Ni—NTA Agarose (QIAGEN) according to the instructions of the manufacturer.
Recombinant Tif2 construct was dialyzed against 20 mM Tris/HCL pH 7.9; 60 mM KCl; 5 mM MgCl2; 1 mM DTT, 0.2 mM PMSF; 10% glycerol. A typical dialyzed eluate fraction contained the fusion protein at a purity of more than 80%. Total protein concentration was 0.1-0.3 mg/ml.
The TIF2 fragment was subsequently biotinylated by addition of 5-40 ul/ml Tif2 fraction of a Biotinamidocaproate N-Hydroxysuccinimide-ester (Sigma) solution (20 mg/ml in DMSO). Overhead rotating samples were incubated for 2 hours at room temperature. Unincorporated label was then separated using G25 Gel filtration chromatography (Pharmacia Biotech, Sweden). Protein containing fractions from the column were pooled and tested for activity in the assay as described below.
For screening of compound libraries as provided for by the methods shown below in the examples for substances which influence the LXR/Tif 2 interaction, the PerkinElmer LANCE technology is applied. This method relies on the binding dependent energy transfer from a donor to an acceptor fluorophore attached to the binding partners of interest. […]

For the compound `O=S(=O)(c1ccccc1)N(CC(F)(F)F)c1ccc(C(O)(C(F)(F)F)C(F)(F)F)cc1` [T0901317, reference compound], in the assay on THP-1 macrophages, the cholesterol export entry is “marked increase”. Besides, the triglyceride mass result with HepG2 liver cells is reported as “marked increase”. Also, the “transactivation of the pFR-luc reporter gene via Gal4 LBD-fusion construct derived from LXRa” value on Gal4DBD-LXRa was “can selectively enhance transcription”. On Gal4DBD-LXRb, the “transactivation of the pFR-luc reporter gene via Gal4 LBD-fusion construct derived from LXRb” value was “can selectively enhance transcription”.
For `C=CCn1c(N2CC3(C)CC2CC(C)(C)C3)nc2ccccc2c1=O` (stereo not drawn) [formula (4)], the EC50 at human LXRalpha LBD (FRET assay, read-out: EC50 at LXR (half-maximal effective concentration)) amounted to 500 nM.
For the compound `CC(C)n1c(N2CC3(C)CC2CC(C)(C)C3)nc2ccc(Br)cc2c1=O` (stereo not drawn) [formula (6)], the “active as agonist / partial agonist of the LXR human nuclear receptor” value at human LXRalpha LBD is given as “active as agonist”.

For the origin of these results see US20050261319A1, “Novel 2-amino-4-quinazolinones and 2-amino-4-oxoquinazolones as LXR nuclear receptor binding compounds with partial agonistic properties” (priority 2002, published 2005).
